Assay results reported in patent US10752588B2 (The Broad Institute, Inc., priority 2014, dated 2020).

Legend:
human D2R/β-arrestin [1] = biological target: T1, human D2R/β-arrestin (Homo sapiens (Human), UniProt P14416); experiment: β-Arrestin agonist assay (PathHunter); format: cell-based; settings: CHO-K1 cell line expressing human D2R/β-arrestin
Outline: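 After compound incubation, detection reagent (Buffer:Emerald II:Galactor-Star, 19:5:1) added and luminescence or fluorescence read.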

human D2R/β-arrestin [2] = biological target: T1, human D2R/β-arrestin; experiment: cell-based; settings: β-arrestin Antagonist, CHO-K1 cell line expressing human D2R/β-arrestin; quinpirole used as agonist
human D2R/β-arrestin [3] = biological target: T1, human D2R/β-arrestin; experiment: cell-based; settings: cAMP Antagonist, CHO-K1 cell line expressing human D2R/β-arrestin; quinpirole used as agonist
human D2R/β-arrestin [4] = biological target: T1, human D2R/β-arrestin; experiment: Gi/cAMP agonist assay (Lance Ultra cAMP, Forskolin); format: cell-based; settings: CHO-K1 cell line expressing human D2R/β-arrestin
Outline: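 Cells were plated and incubated before compounds were pin-transferred and incubated for 10 min at 37 °C. Forskolin was then added to stimulate cAMP. cAMP was detected by Lance Ultra TR-FRET using Eu-cAMP tracer and ULight-anti-cAMP antibody.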

T1 sequence (P14416 whole entry): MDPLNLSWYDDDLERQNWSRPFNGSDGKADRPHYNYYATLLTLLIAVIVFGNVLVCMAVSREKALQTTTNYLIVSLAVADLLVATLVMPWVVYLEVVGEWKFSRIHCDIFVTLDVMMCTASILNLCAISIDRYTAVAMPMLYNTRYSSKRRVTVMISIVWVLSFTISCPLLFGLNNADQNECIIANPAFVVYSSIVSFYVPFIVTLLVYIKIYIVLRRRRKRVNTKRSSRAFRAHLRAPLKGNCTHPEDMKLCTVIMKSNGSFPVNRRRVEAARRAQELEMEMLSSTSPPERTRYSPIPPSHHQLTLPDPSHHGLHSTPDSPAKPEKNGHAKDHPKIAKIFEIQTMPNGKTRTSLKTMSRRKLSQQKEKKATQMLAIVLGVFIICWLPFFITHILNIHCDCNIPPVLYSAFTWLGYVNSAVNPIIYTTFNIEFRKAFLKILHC

| SMILES | EC50 (human D2R/β-arrestin [1]) | IC50 (human D2R/β-arrestin [2]) | IC50 (human D2R/β-arrestin [3]) | EC50 (human D2R/β-arrestin [4]) |
| --- | --- | --- | --- | --- |
| CC(C1CCN(CCOc2ccccc2)CC1)N(C)C(c1ccc(Cl)cc1)c1ccccn1 (single isomer, unassigned) [Compound 97c, N-((4-chlorophenyl)(pyridin-2-yl)methyl)-N-methyl-1-(1-(2-phenoxyethyl)piperidin-4-yl)ethan-1-amine] | > 30000 nM | < 100 nM | < 100 nM | > 30000 nM |
| Fc1ccccc1OCCN1CCC(CN(CC(F)(F)F)C(c2ccc(Cl)cc2)c2ccccn2)CC1 (single isomer, unassigned) [Compound 136b, N-((4-chlorophenyl)(pyridin-2-yl)methyl)-2,2,2-trifluoro-N-((1-(2-(2-fluorophenoxy)ethyl)piperidin-4-yl)methyl)ethan-1-amine] | > 30000 nM | < 100 nM | < 100 nM | > 30000 nM |
| O=C(NC(c1ccc(Cl)cc1)c1ccccn1)C1CCN(CCOc2c(F)cccc2F)CC1 (stereo not shown) [Compound 67, N-((4-chlorophenyl)(pyridin-2-yl)methyl)-1-(2-(2,6-difluorophenoxy)ethyl)piperidine-4-carboxamide] | > 30000 nM | 100 to 1000 nM | < 100 nM | > 30000 nM |
| CC(C1CCN(CCOc2ccccc2)CC1)N(C)C(c1ccc(Cl)cc1)c1ccccn1 (single isomer, unassigned) [Compound 97d, N-((4-chlorophenyl)(pyridin-2-yl)methyl)-N-methyl-1-(1-(2-phenoxyethyl)piperidin-4-yl)ethan-1-amine] | > 30000 nM | 100 to 1000 nM | 100 to 1000 nM | > 30000 nM |
| O=C(NC(c1ccccn1)c1ccccc1Cl)C1CCN(CCOc2ccccc2)CC1 (stereo not shown) [Compound 24] | > 30000 nM | 1000 to 10000 nM | > 30000 nM | 1000 to 10000 nM |
| CC(C1CCN(CCOc2ccccc2)CC1)N(C)C(c1ccc(Cl)cc1)c1ccccn1 (single isomer, unassigned) [Compound 97a, N-((4-chlorophenyl)(pyridin-2-yl)methyl)-N-methyl-1-(1-(2-phenoxyethyl)piperidin-4-yl)ethan-1-amine] | > 30000 nM | 1000 to 10000 nM | 100 to 1000 nM | 100 to 1000 nM |
| COc1cccc(C(NCC2CCN(CCOc3ccccc3)CC2)c2ccccn2)c1 (stereo not shown) [Compound 80, 1-(3-methoxyphenyl)-N-((1-(2-phenoxyethyl)piperidin-4-yl)methyl)-1-(pyridin-2-yl)methanamine] | > 30000 nM | 1000 to 10000 nM | 1000 to 10000 nM | 100 to 1000 nM |
| CC(=O)N(CC1CCN(CCOc2ccccc2)CC1)C(c1ccc(Cl)cc1)c1ccccn1 (stereo not shown) [Compound 107, N-((4-chlorophenyl)(pyridin-2-yl)methyl)-N-((1-(2-phenoxyethyl)piperidin-4-yl)methyl) acetamide] | > 30000 nM | 100 to 1000 nM | > 30000 nM | 100 to 1000 nM |
| Fc1ccccc1OCCN1CCC(CNC(c2ccc(Cl)cc2)c2ccccn2)CC1 (stereo not shown) [Compound 121, 1-(4-chlorophenyl)-N-((1-(2-(2-fluorophenoxy)ethyl)piperidin-4-yl)methyl)-1-(pyridin-2-yl) methanamine] | > 30000 nM | 100 to 1000 nM | 100 to 1000 nM | > 30000 nM |
| Fc1ccccc1OCCN1CCC(CNC(c2ccc3c(c2)OCO3)c2ccccn2)CC1 (single isomer, unassigned) [Compound 139a, 1-(benzo[d][1,3]dioxol-5-yl)-N-((1-(2-(2-fluorophenoxy)ethyl)piperidin-4-yl)methyl)-1-(pyridin-2-yl)methanamine] | > 30000 nM | 100 to 1000 nM | 100 to 1000 nM | < 100 nM |
| c1ccc(OCCN2CCC(CNC(c3ccc4c(c3)OCO4)c3ccccn3)CC2)cc1 (stereo not shown) [Compound 102, 1-(benzo[d][1,3]dioxol-5-yl)-N-((1-(2-phenoxyethyl)piperidin-4-yl)methyl)-1-(pyridin-2-yl)methanamine] | > 30000 nM | 100 to 1000 nM | 100 to 1000 nM | 100 to 1000 nM |
| COc1cccc(C(NC(=O)C2CCN(CCOc3ccc4ncsc4c3)CC2)c2ccccn2)c1 (stereo not shown) [Compound 82, 1-(2-(benzo[d]thiazol-6-yloxy)ethyl)-N-((3-methoxyphenyl)(pyridin-2-yl)methyl)piperidine-4-carboxamide] | > 30000 nM | 10000 to 30000 nM | 1000 to 10000 nM | > 30000 nM |
| O=C(NC(c1cccnc1)c1ccccn1)C1CCN(CCOc2ccccc2)CC1 (stereo not shown) [Compound 29, 1-(2-phenoxyethyl)-N-(pyridin-2-yl(pyridin-3-yl)methyl)piperidine-4-carboxamide] | > 30000 nM | 1000 to 10000 nM | > 30000 nM | 100 to 1000 nM |
| CC(C)(COc1ccccc1)N1CCC(C(=O)NC(c2ccc(F)cc2)c2ccccn2)CC1 (stereo not shown) [Compound 58] | > 30000 nM | 10000 to 30000 nM | 10000 to 30000 nM | > 30000 nM |
| O=C(NC(c1ccc(Cl)cc1)c1ccccn1)C1CCN(CCOc2ccc(Cl)cc2)CC1 (stereo not shown) [Compound 2, 1-(2-(4-chlorophenoxy)ethyl)-N-((4-chlorophenyl)(pyridine-2-yl)methyl) piperidine-4-carboxamide] | > 30000 nM | 1000 to 10000 nM | > 30000 nM | 100 to 1000 nM |
| O=C(NC(c1ccccc1F)c1ccccc1F)C1CCN(CCOc2ccccc2Cl)CC1 [Compound 84, N-(bis(2-fluorophenyl)methyl)-1-(2-(2-chlorophenoxy)ethyl)piperidine-4-carboxamide] | > 30000 nM | 100 to 1000 nM | 100 to 1000 nM | > 30000 nM |
| COc1cccc(C(c2ccccn2)N(C)CC2CCN(CCOc3ccccc3F)CC2)c1 (stereo not shown) [Compound 77, N-((1-(2-(2-fluorophenoxy)ethyl)piperidin-4-yl)methyl)-1-(3-methoxyphenyl)-N-methyl-1-(pyridin-2-yl)methanamine] | > 30000 nM | 100 to 1000 nM | 1000 to 10000 nM | < 100 nM |
| COc1cccc(C(NC(=O)C2CCN(CCOc3ccc(F)cc3F)CC2)c2ccccn2)c1 (stereo not shown) [Compound 145, 1-(2-(2,4-difluorophenoxy)ethyl)-N-((3-methoxyphenyl)(pyridin-2-yl)methyl)piperidine-4-carboxamide] | > 30000 nM | 1000 to 10000 nM | 1000 to 10000 nM | 10000 to 30000 nM |
| COc1cccc(C(c2ccccn2)N(CC2CCN(CCOc3ccccc3F)CC2)C(C)C)c1 (stereo not shown) [Compound 134, N-((1-(2-(2-fluorophenoxy)ethyl)piperidin-4-yl)methyl)-N-((3-methoxyphenyl)(pyridin-2-yl)methyl)propan-2-amine] | > 30000 nM | 100 to 1000 nM | 100 to 1000 nM | < 100 nM |
| Oc1c(CN2CCN(c3ccccn3)CC2)cc(Cl)c2cccnc12 [MLS1547, reference compound] | > 30000 nM | 1000 to 10000 nM | > 30000 nM | < 100 nM |
| COc1cccc(C(NC(=O)C2CCN(CCOc3ccccc3)CC2)c2ccccc2F)c1 (stereo not shown) [Compound 50] | > 30000 nM | 1000 to 10000 nM | > 30000 nM | 100 to 1000 nM |
| O=C(NC(c1ccc(Cl)cc1)c1ccccn1)C1CCN(CCOc2ccccn2)CC1 (stereo not shown) [Compound 141, N-((4-chlorophenyl)(pyridin-2-yl)methyl)-1-(2-(pyridin-2-yloxy)ethyl)piperidine-4-carboxamide] | > 30000 nM | 1000 to 10000 nM | 1000 to 10000 nM | > 30000 nM |
| FC(F)(F)c1ccccc1OCCN1CCC(CNC(c2ccc(Cl)cc2)c2ccccn2)CC1 (stereo not shown) [Compound 120, 1-(4-chlorophenyl)-1-(pyridin-2-yl)-N-((1-(2-(2-(trifluoromethyl)phenoxy)ethyl)piperidin-4-yl)methyl)methanamine] | > 30000 nM | < 100 nM | < 100 nM | > 30000 nM |
| COc1cccc(C(NC(=O)C2CCN(CCOc3ccccc3)CC2)c2cocn2)c1 (stereo not shown) [Compound 129, N-((3-methoxyphenyl)(oxazol-4-yl)methyl)-1-(2-phenoxyethyl)piperidine-4-carboxamide] | > 30000 nM | > 30000 nM | > 30000 nM | 1000 to 10000 nM |
| O=C(NC(c1ccc(Cl)cc1)c1ccc(F)cn1)C1CCN(CCOc2ccccc2F)CC1 (single isomer, unassigned) [Compound 92b, N-((4-chlorophenyl)(5-fluoropyridin-2-yl)methyl)-1-(2-(2-fluorophenoxy)ethyl)piperidine-4-carboxamide] | > 30000 nM | 1000 to 10000 nM | 1000 to 10000 nM | 10000 to 30000 nM |
| O=C(NC(c1ccc(Cl)cc1)c1ccccn1)C1CCN(CCOc2ccc3ncsc3c2)CC1 (stereo not shown) [Compound 19, 1-(2-(Benzo[d]thiazol-6-yloxy)ethyl)-N-((4-chlorophenyl)(pyridin-2-yl)methyl) piperidine-4-carboxamide] | > 30000 nM | 1000 to 10000 nM | > 30000 nM | 100 to 1000 nM |
| Fc1ccccc1C(NCC1CCN(CCOc2ccccc2)CC1)c1ccc(Cl)cc1 (stereo not shown) [Compound 81, 1-(4-chlorophenyl)-1-(2-fluorophenyl)-N-((1-(2-phenoxyethyl)piperidin-4-yl)methyl)methanamine] | > 30000 nM | 100 to 1000 nM | 100 to 1000 nM | > 30000 nM |
| O=C(NC(c1ccc(Cl)cc1)c1ccccn1)C1CCN(CCOc2ccccc2)CC1 (single isomer, unassigned) [Compound 63b, N-((4-chlorophenyl)(pyridin-2-yl)methyl)-1-(2-phenoxyethyl)piperidine-4-carboxamide] | > 30000 nM | 100 to 1000 nM | 100 to 1000 nM | > 30000 nM |
